In patent US20240208912A1 (Mirati Therapeutics, Inc., priority 2021, published 2024):
Values belong to the molecule of their own block, whether it stands above or below them.

Tests used:
[1] = tested on: HCT116 homozygous MTAP knockout cells; assay: Proliferation assay (CellTiter-Glo, 10 days) in HCT116 homozygous MTAP knockout cells; type: cell-based; details: CellTiter-Glo after 10 days of treatment, read-out: Proliferation IC50 (nM) HCT116 MTAP_KO
How it was run: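 MTAP-null HCT116 clone made by CRISPR/Cas9 knockout of both alleles, tested beside parental cells. Cells dosed the day after seeding, split 1:10 on day 6 into fresh medium with the same compound level, and read on day 11 by CellTiter-Glo. IC50 taken after 10 days of exposure.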

[2] = tested on: PRMT5-dependent Symmetric Di-methyl Arginine signal in HCT116 parental cells; assay: SYM11 In-Cell Western in HCT116 parental cells; type: cell-based; details: HCT116 parental cells; 4 days of treatment; SYM11/DRAQ5 ratio as percent of DMSO control; read-out: In-cell-Western (SYM11) IC50 (nM) HCT216 parental
Procedure: (§1) Control samples were analyzed in parallel.
Briefly, on Day 0, 2,000 HCT116 parental or HCT116 homozygous MTAP knockout cells were seeded in 96 well plates in McCoy's 5A supplemented with 10% fetal bovine serum and pen/strep and the cells were incubated overnight at 37° C. plus 5% CO2. The following day, cells were treated with DMSO vehicle control or a dose response of PRMT5 inhibitors, and incubated at 37° C. plus 5% CO^2 for four days.
After 4 days of treatment, the cells were fixed by adding 50 μl of 4% paraformaldehyde solution to each well and the cells were incubated for 20 min at room temperature. The paraformaldehyde solution was removed, 150 μl of ice-cold methanol was added and the plate was placed −20° C. for 10 minutes. The methanol was removed, 150 μl of Odyssey Blocking buffer+0.05% Tween20 was added and the plate was incubated at room temperature with shaking for one hour.
The primary SYM11 antibody solution was removed by aspiration and the wells were washed three consecutive times with phosphate buffered saline containing 0.1% Tween-20 (PBST).
The secondary antibody solution was removed by aspiration and the wells were washed three consecutive times with PBST.
The SYM11 signal and the DRAQ5 signal were quantified using a Li-Cor Odyssey machine reading at […], respectively. The SYM11/DRAQ5 ratio was used to calculate the inhibition of Symmetric Dimethyl Arginine as percent of DMSO control.

[3] = target: T1, PRMT5/MEP50 complex (Homo sapiens, UniProt O14744); assay: PRMT5:MEP50 HotSpot Assay (full-length histone H2A substrate, plus and minus MTA); type: biochemical; details: read-out: IC50 + 2 μM MTA, in the presence of 2 μM MTA
T1 construct: purchased Reaction Biology Corporation
How it was run: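 Radiometric HotSpot format using recombinant full-length histone H2A as substrate, run with and without MTA. Reactions were stopped and spotted onto filter paper. Tritiated H2A was quantified by scintillation counting.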

[4] = tested on: HCT116 parental cells; assay: Proliferation assay (CellTiter-Glo, 10 days) in HCT116 parental cells; type: cell-based; details: CellTiter-Glo after 10 days of treatment
Procedure: as §1
Briefly, on Day 0, 250 HCT116 parental or HCT116 homozygous MTAP knockout cell were seeded in 96 well plates in McCoy's 5A supplemented with […] fetal bovine serum and pen/strep and the cells were incubated overnight at 37° C. plus 5% CO2.
The following day, cells were treated with DMSO vehicle control or a dose response of PRMT5 inhibitors and incubated at 37 C plus 5% CO2 for five days. On Day 6, the cells were trypsinized and split 1:10 into new 96-well plates with fresh medium containing the same concentration of PRMT5 inhibitor and incubated for an additional 5 days at 37° C. plus 5% CO^2.
On Day 11, the viability of the cells was measured using a CTG assay kit (CellTiter-Glo; Promega cat.no G7573) in accordance with the manufacturer's instructions. The IC50 values for each compound after 10 days of treatment were calculated using GraphPad PRISM software.

[5] = tested on: PRMT5-dependent Symmetric Di-methyl Arginine signal in HCT116 homozygous MTAP Knockout cells; assay: SYM11 In-Cell Western in HCT116 homozygous MTAP knockout cells; type: cell-based; details: 4 days of treatment, SYM11/DRAQ5 ratio as percent of DMSO control, read-out: In-cell-Western (SYM11) IC50 (nM) HCT116 MTAP_KO
How it was run: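 HCT116 cells with CRISPR homozygous MTAP knockout, alongside parental cells, treated four days with PRMT5 inhibitor dose response at 37° C., 5% CO2 in McCoy's 5A with 10% FBS.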

[6] = target: T1, PRMT5/MEP50 complex; assay: PRMT5:MEP50 FlashPlate Assay (histone H4 peptide substrate, plus and minus MTA); type: biochemical
Procedure: The PRMT5 inhibitory activity of compounds of the present invention was determined using either a PRMT5:MEP50 FlashPlate Assay (Reaction Biology Corporation) or a PRMT5:MEP50 HotSpot Assay (Reaction Biology Corporation).

[7] = in the absence of MTA, read-out: IC50

T1 sequence (O14744 2-637 limits assumed): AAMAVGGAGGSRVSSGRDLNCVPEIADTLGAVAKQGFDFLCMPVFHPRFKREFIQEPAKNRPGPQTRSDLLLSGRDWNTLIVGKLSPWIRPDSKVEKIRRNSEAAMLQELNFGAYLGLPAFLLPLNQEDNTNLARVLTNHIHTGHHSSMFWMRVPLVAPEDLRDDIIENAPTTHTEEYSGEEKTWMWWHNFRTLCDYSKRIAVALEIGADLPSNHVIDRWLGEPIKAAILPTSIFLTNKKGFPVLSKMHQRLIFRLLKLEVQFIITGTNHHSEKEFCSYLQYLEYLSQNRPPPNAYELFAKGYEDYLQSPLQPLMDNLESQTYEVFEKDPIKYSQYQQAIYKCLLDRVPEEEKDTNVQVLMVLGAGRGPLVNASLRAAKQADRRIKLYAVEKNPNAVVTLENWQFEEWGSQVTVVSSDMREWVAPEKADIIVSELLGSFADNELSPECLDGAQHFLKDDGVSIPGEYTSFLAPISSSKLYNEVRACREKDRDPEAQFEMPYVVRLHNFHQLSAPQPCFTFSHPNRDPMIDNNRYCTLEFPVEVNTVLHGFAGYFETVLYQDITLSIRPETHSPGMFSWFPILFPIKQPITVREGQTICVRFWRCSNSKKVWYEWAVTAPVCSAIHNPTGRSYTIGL
T1 sequence (Q9BQA1 2-342 partner limits assumed): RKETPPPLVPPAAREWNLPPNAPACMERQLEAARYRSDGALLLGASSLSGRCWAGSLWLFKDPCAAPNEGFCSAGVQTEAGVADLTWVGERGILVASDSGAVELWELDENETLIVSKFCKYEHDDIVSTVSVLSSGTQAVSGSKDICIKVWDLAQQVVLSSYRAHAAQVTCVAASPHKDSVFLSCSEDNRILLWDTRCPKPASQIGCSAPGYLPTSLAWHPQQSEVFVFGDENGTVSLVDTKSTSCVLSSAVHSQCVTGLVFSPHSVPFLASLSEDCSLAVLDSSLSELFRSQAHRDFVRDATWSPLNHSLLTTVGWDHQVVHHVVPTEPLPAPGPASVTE

IC50 [1]: 2200 nM
IC50 [3]: 1460 nM
IC50 [5]: > 10000 nM
IC50 [6, 7]: 113 nM
IC50 ([6]; read-out: IC50 + 2 μM MTA, in the presence of 2 μM MTA): 2.8 nM
Molecule: 4-(aminomethyl)-6-(5-ethoxypyrazolo[1,5-a]pyridin-3-yl)phthalazin-1(2H)-one [Example 4-158]
IC50 [2]: > 10000 nM
IC50 [4]: 1740 nM

IC50 [6, 7]: 420 nM
Molecule: CCc1cncc(-c2ccc3c(=O)[nH]nc(CN)c3c2)c1 [Example 3-13, 4-(aminomethyl)-6-(5-ethylpyridin-3-yl)-phthalazin-1(2H)-one]

IC50 [6, 7]: > 100000 nM
Molecule: Cc1nc2cncc(-c3ccc4c(=O)[nH]nc(CN)c4c3)c2o1 [Example 4-110, 4-(aminomethyl)-6-(2-methyloxazolo[4,5-c]pyridin-7-yl)phthalazin-1(2H)-one]

IC50 [6, 7]: 35 nM
Molecule: COc1cccc(-c2c(-c3ccc4c(=O)[nH]nc(CN)c4c3)cnn2C)c1 [Example 4-93, 4-(aminomethyl)-6-(5-(3-methoxyphenyl)-1-methyl-1H-pyrazol-4-yl)phthalazin-1(2H)-one]

IC50 [6, 7]: 33 nM
Molecule: Cc1cccc(-c2c(-c3ccc4c(=O)[nH]nc(CN)c4c3)cnn2C)c1 [Example 4-94, 4-(aminomethyl)-6-(1-methyl-5-(m-tolyl)-1H-pyrazol-4-yl)phthalazin-1(2H)-one]
